We go through one compound from patent US10159678B2, “Methods to decrease susceptibility to asthmatic bronchoconstriction” (Cornell University, priority 2012, dated 2018).

Test [1] deals with ORMDL1, ORMDL2 and ORMDL3 mRNA. As to the kind of experiment: ORMDL1, 2 and 3 mRNA expression in lung tissue (RealTime RT-PCR). The test is classed as in vivo, mice. Particulars: 20 μg myriocin; FIG. 2H. On the procedure: RNA was extracted from lungs using TRIzol (Invitrogen). Following reverse transcription of 3 μg RNA, ORMDL1, 2 and 3 mRNAs were amplified using the following primers and probes (Roche Applied Science): RNA levels were quantified using the ΔΔCt method and normalized to expression of murine ribosomal 18s (4310893E, Applied Biosystems). To assess if ORMDL expression was altered with decreased activity of SPT, mRNA expression of ORMDL1, 2 and 3 in lung tissue was analyzed following myriocin treatment and in the Sptlc2^+/− mice. Expression of ORMDL1, 2 or 3 was not affected by myriocin (FIG. 2H) or by genetic SPT deficiency (FIG. 2I).

Test [2] deals with lung sphingolipid composition. In words: Lung sphingolipid composition by UPLC-MS/MS after intranasal myriocin. The test is classed as in vivo, BALB/c mice. On the procedure: Animal studies described herein were conducted under protocols approved by the Institutional Animal Care and Use Committee of Weill Cornell Medical College. Female BALB/c mice, obtained from Taconic Farms (Tarrytown, N.Y.). Animals were housed under specific pathogen-free conditions and used at 6 to 8 weeks of age. Myriocin (Enzo Life Sciences, Plymouth Meeting, Pa.) was freshly prepared from a 10 mM stock solution to a 1 mM or 100 μM solution in 0.9% saline and 0.05% fatty acid free bovine serum albumin and 50 μl were administered intranasally. Control animals received the vehicle solution (1% DMSO in 0.9% saline, […] BSA) or were naïve. Three hours later the animals underwent pulmonary function testing and were sacrificed. Heterozygous SPT-deficient mice (Sptlc2^+/−) or homozygous controls (Sptlc2^+/+) were bred, identified by genotyping using procedures like those described by Hojjati et al. (2005) and used at 6-8 weeks of age.
Lungs were harvested following perfusion with phosphate-buffered saline (PBS, Invitrogen, Carlsbad, Calif.) containing 0.6 mM ethylenediamine tetra acetic acid dipotassium salt dehydrate (EDTA, Invitrogen) via the right ventricle to remove blood cells from the pulmonary circulation. The lungs were then homogenized in normal PBS. De-novo sphingolipid synthesis was assessed by evaluating incorporation of ^3H-serine (24.1 Ci/mmol, Perkin Elmer (Boston, Mass.) into ceramide and sphingosine. Sphingolipid synthesis through the recycling pathway was assessed by evaluating incorporation of ^3H-sphingosine (18.2 Ci/mmol, Perkin Elmer (Boston, Mass.) into ceramide and sphingomyelin. In both assays, equal amounts of fresh lung homogenates were incubated for 30 min at 37° C. with 2 μl of the radioactive tracer, followed by lyophilization to determine dry weight, lipid extraction with chloroform/methanol/water (1:1:0.9). The organic phase was evaporated, dissolved in 50 μl chloroform/methanol (1:1) spotted on […] chromatography plates (TLC) (Merck Silica gel 60, Darmstadt, Germany) and chromatographed for 25 min with chloroform-methanol-ammonium hydroxide (65:25:4 v/v). Ceramides, sphingomyelin, phosphatidylserine, sphinganine and sphingosine, all dissolved at 1 μg/μl were run as standards. The lipids were identified according to their Rf values after visualization in an iodine vapor tank. The TLC plate was cut at the corresponding lipid spot, mixed with scintillation fluid (Ultima Gold, Packard Instrument Company, CT) and analyzed in a scintillation counter (Perkin Elmer Wallac, Gaithersburg, Md.). Results are calculated as dpm/mg protein.
Sphinganine, sphingosine, sphinganine-1-phosphate, sphingosine-1-phosphate, ceramides (Cer16, Cer18, Cer20, Cer22, Cer24:1, Cer24) were quantified in lung homogenates by ultra-performance liquid chromatography-tandem mass spectrometry (UPLC-MS/MS), on a Waters Xevo, equipped with a Waters BEH Phenyl UPLC Column (ACQUITY UPLC BEH Phenyl Column, 3.0×100 mm, 1.7 μm and a ACQUITY BEH Phenyl VanGuard Pre-column, 2.1×5 mm, 1.7 μm in the Columbia University Lipid Core as reported by Shaner et al. (2009) with minor modifications. […] of an internal standard mix (Avanti Polar Lipids, Mix 1) in ethanol, 0.5 ml methanol and 0.25 ml chloroform were added to the lyophilized lung homogenates and sonicated for 12 h at 48° C. After centrifugation at 10,000 g for 5 min, the supernatant was evaporated in a glass tube and resuspended in 100 μl methanol. 10 μl were injected into the UPLC-MS/MS. Results are calculated as pmol/mg.
Myriocin is a potent and specific inhibitor of SPT that affects SPT independent of orm. To assess if direct administration of myriocin to the respiratory tract affects pulmonary sphingolipid synthesis, the lung sphingolipid composition was determined by ultra-performance liquid chromatography-tandem mass spectrometry (UPLC-MS/MS) 3 h following intranasal administration of myriocin.

SMILES strings stand for the structures.

For `CCCCCCC(=O)CCCCCC/C=C/C[C@@H](O)[C@H](O)[C@@](N)(CO)C(=O)O` [myriocin], the “Expression of ORMDL1, 2 or 3 in lung tissue” value in test [1] is reported as “not affected”. For the same compound, the “sphinganine in the lung” value in test [2] (3 h following intranasal administration of myriocin (20 μg), FIG. 1A) is “reduced”. Moreover, the “sphingosine levels in the lung” value in test [2] (3 h following intranasal myriocin (20 μg), FIG. 1B) is “not significantly decreased”. Moreover, the “sphinganine-1P (Sa1P) levels in the lung” value in test [2] (3 h following intranasal myriocin (20 μg), FIG. 1C) is listed as “not significantly decreased”. Also, in test [2] (3 h following intranasal myriocin (20 μg), FIG. 1D), the “sphingosine-1P (S1P) levels in the lung” value is on record as “not significantly decreased”. In addition, the “sum of ceramides (C14, C16, C18, C20, C22, C24, C24:1) in the lung” value in test [2] (3 h following intranasal myriocin (20 μg), FIG. 1E-1G) is “decreased”. Moreover, the “certain individual ceramides in the lung” value in test [2] (3 h following intranasal myriocin, FIGS. 1F and 1G) is listed as “individually decreased”.
